Experimental data from US11406631B2, “Hydrazone derivatives for preventing or treating EBV-related cancers” (Universite de Bretagne Occidentale, priority 2018, dated 2022).

Columns and labels:
[1] = tested on: GAr-based inhibition of translation; experiment: Yeast assay (assays described in Lista et al.); format: cell-based, Saccharomyces cerevisiae
Source text: A yeast-based (Saccharomyces cerevisiae) assay that recapitulates all the aspects of the GAr-based inhibition of translation, including the GAr-length dependency, has been developed, that allowed understanding the mechanisms of GAr-mediated mRNA translation—suppression in cis, as well as the cellular factors involved (Lista et al. Biotechnol J 2015, 10, 1670-1681). This assay was successfully used to identify small molecular weight compounds that can stimulate EBNA1 expression both in yeast and mammalian cells and that relieve GAr-based limitation of antigen presentation (Voisset et al. Dis Model Mech 2014, 7, 435-444).
Compounds 1a, 2a, 4a, 5a, 7a, 10a and 11a were also tested in the various assay described in Lista et al. (Nat Commun 2017, 8, 16043).

quadruplex RNA F-EBNA1-T = experiment: FRET-melting assay; format: binding, Epstein-Barr virus; settings: for ΔTm, ligand + 3 μM ds26 / ΔTm, ligand + 10 μM ds26 / ΔTm, ligand alone: F-EBNA1-T 0.2 μM, ligand 1.0 μM, K+10 buffer; for ΔTm, ligand + 3 μM ds26: competitor DNA ds26 3 μM (15 eq); for ΔTm, ligand + 10 μM ds26: competitor DNA ds26 10 μM (50 eq); for ΔTm, ligand alone: no competitor; for affinity for the G-quadruplex structure of EBNA1 (in words, FRET-melting data): conclusion from Table 2
Source text: The FRET-melting assay is based on thermal denaturation of G4-ARN monitored by fluorescence due to the phenomenon of Förster Resonance Energy Transfer (FRET). This method uses quadruplex-forming RNA sequence dual-labeled with two different fluorophores: a donor (fluorescein, or FAM) and an acceptor (tetramethylrhodamine, or TAMRA). When RNA is folded into G-quadruplex (G4) structure, fluorescence of the donor fluorophore is weak due to strong energy transfer (FRET) to the neighboring acceptor fluorophore. Upon thermal denaturation, the quadruplex unfolds and the fluorophores are separated, leading to decrease of the FRET effect and increase of the fluorescence of the donor (see FIG. 2). By following the fluorescence of the donor as a function of temperature, a melting curve of the G-quadruplex RNA can be obtained, which allows determining the temperature of denaturation at which 50% of the quadruples is unfolded (T1, FIG. 3).
The FRET-melting assay allows assessing the affinity of small molecules (ligands) for the G4-RNA. The addition of a G4-ligand stabilizes the G-quadruplex structure and increases the denaturation temperature. The temperature of denaturation in the presence of ligands (T2) can be compared with that obtained in the absence of ligands (T1). The value of ΔTm (ΔTm=T2−T1) represents a measure of the affinity of the compounds of the invention (ligand). Generally, values of ΔTm>20° C. correspond to ligands of high affinity.
The dual-labeled oligoribonucleotide EBNA1 [5′-FAM-r(GGGGCAGGAGCAGGAGGA)-TAMRA-3′] (SEQ ID no 2) purified by reversed-phase HPLC was purchased from Eurogentec. The donor fluorophore was 6-carboxyfluorescein (FAM) and the acceptor fluorophore was 6-carboxytetramethylrhodamine (TAMRA).
Stock solutions of the ligands (2 mM in DMSO) were used for FRET-melting assay, unless otherwise stated, and were stored at −20° C. FRET-melting measurements are performed on 7900HT Fast Real-Time PCR System (Applied Biosystems) with Microamp Fast optical 96-well reaction plate (Applied Biosystems).
Preparation of Oligonucleotides For FRET-melting assay, oligoribonucleotide F-EBNA1-T was dissolved in K^+10 buffer (10 mM lithium cacodylate buffer, pH 7.3, supplemented with 10 mM KCl and 90 mM LiCl).
Prior to use, all oligonucleotides were pre-treated by heating at 95° C. for 5 min, then rapidly cooled to 4° C. to favor the intramolecular folding by kinetic trapping. Duplex-DNA ds26 (5′CAA-TCG-GAT-CGA-ATT-CGA-TCC-GAT-TG-3′) (SEQ ID no 3) was prepared by heating this self-complementary strand at 90° C. for 5 min in K^+10 buffer followed by a slow cooling over 6 h.
FRET-melting assay is performed in 96-well plates on real time PCR apparatus 7900HT Fast Real-Time PCR System using the heating ramp as follow: 5 min at 25° C., then increase of 0.5° C. every minute until 95° C. Each experimental condition was tested in duplicated in a volume of 25 μL for each sample. The 96-well plates (Applied Biosystems) were prepared by aliquoting the annealed RNA (24 μL of 0.21 μM solution in K^+10 buffer) into each well, followed by 1 μL of ligand solution (25 μM in K^+10 buffer). For competition experiments, duplex competitors were added to 200 nM quadruplex sequences at final concentrations of 3.0 μM (15 eq) and 10.0 μM (50 eq), with a total reaction volume of 25 μL, with the labeled oligoribonucleotide (0.2 μM) and the ligand (1.0 μM). Measurements were made with excitation at 492 nm and detection at 516 nm. The change in the melting temperature in the presence of 1.0 μM putative ligand, ΔTm (1.0 μM), was calculated from at least two experiments by subtraction of the blank from the averaged melting temperature of each compound (1.0 μM).
The results are shown in FIG. 4 and in Table 2 below (higher ΔTm values indicate higher affinity of the compounds to G4-RNA structure of EBNA1).

G4-RNA EBNA1 = experiment: HT-G4-FID assay: Thiazole Orange displacement from G4-RNA; format: binding, Epstein-Barr virus; settings: for DC50: K+-100 buffer, pH 7.3, triplicate assays; for affinity for the G-quadruplex structure of EBNA1 (in words, FID data): conclusion from Table 1
Method: This assay is based on the displacement of a fluorescent indicator (Thiazole Orange, hereinafter TO) from a G4-RNA structure (RNA G-quadruplex of EBNA1) by a putative ligand such as the compounds of the invention (see FIG. 1). This displacement is quantified as % TO displacement. The percentage of TO displacement is calculated from the fluorescence intensity (F) in the presence of a putative ligand, using:
[formula] where F0 is fluorescence intensity of the probe (TO) bound to RNA without added ligand. The percentage of displacement is then plotted as a function of the concentration of added ligand. The RNA affinity of putative ligands is evaluated using the concentration of a ligand required to decrease the fluorescence of the probe by 50% (noted DC50), which is determined graphically from non-linear fitting of the displacement curve. […] 2. Materials and Reagents
Thiazole Orange (TO) and cacodylic acid were purchased from Aldrich and used without further purification. The oligoribonucleotide EBNA1 [5′-r(GGGGCAGGAGCAGGAGGA)-3′] (SEQ ID no 1) purified by reversed-phase HPLC was purchased from Eurogentec.
Stock solutions of the ligands (2 mM in DMSO (dimethylsulfoxyde)) were used for G4-FID assay, unless otherwise stated, and were stored at −20° C. Stock solutions of TO (2 mM in DMSO) were used for G4-FID assay. Fluorescent probe powders and solutions were stored and used, protected from light and used as aliquots to avoid freeze-thaw cycles. HT-G4-FID measurements were performed on a FLUOstar Omega microplate reader (BMG Labtech) with 96-well Non-Binding Surface black with black bottom polystyrene microplates (Corning ref 3650).
For HT-G4-FID assay, the oligonucleotide was dissolved in K^+−100-buffer (10 mM lithium cacodylate, pH 7.3, 100 mM KCl, 1 mM EDTA, 1% DMSO). Oligonucleotide concentrations were determined on the basis of their absorbance at 260 nm. Prior to use, the oligonucleotide was pre-treated by heating at 95° C. for 5 min followed by a slow cooling to 25° C.
Each G4-FID assay is performed in a 96-well microplates. […] The microplate is filled with (a) K^+−100 solution (qs for 200 μL) (b) 10 μL of a solution of pre-folded oligonucleotides (5 μM) and TO (10 μM-2 eq) and (c) an extemporaneously prepared 5 μM ligand solution in K^+−100 buffer (0 to 100 μL along the line of the microplate, i.e., from column […]: 0, 0.125, 0.25, 0.375, 0.5, 0.625, 0.75, 1.0, 1.25, 1.5, 2.0 and 2.5 μM) (see Largy et al., Anal Bioanal Chem 2011, 400, 34193427). After 5 min of orbital shaking at 500 rpm, fluorescence intensity is measured using the following experimental parameters: positioning delay: 0.5 s, 20 flashes per well, emission/excitation filters (nm): 485/520, gain adjusted at 80% of the fluorescence from the most fluorescent well (i.e., a well from column A).
Results are shown in Table 1 below (lower DC50 values indicate higher affinity of compounds to the G4-RNA structure of EBNA1).

SMILES: C[n+]1ccc(C=NNC(=O)c2cccc(C(=O)NN=Cc3cc[n+](C)cc3)n2)cc1.[I-].[I-] [Compound 1a, N′^2,N′^6-Bis[(1-methylpyridinium-4-yl)methylene]pyridine-2,6-dicarbohydrazide iodide]
- result in the yeast assay [1]: positive results

SMILES: O=C(NN=Cc1cc[n+](Cc2ccccc2)c2ccccc12)c1cccc(C(=O)NN=Cc2cc[n+](Cc3ccccc3)c3ccccc23)n1.[Br-].[Br-] [Compound 2c, N′^2,N′^6-Bis[(1-benzylquinolinium-4-yl)methylene]pyridine-2,6-dicarbohydrazide bromide]
- ΔTm, ligand + 3 μM ds26 (quadruplex RNA F-EBNA1-T): 11.4 ± 0.6 °C
- ΔTm, ligand + 10 μM ds26 (quadruplex RNA F-EBNA1-T): 9.6 ± 0.2 °C
- ΔTm, ligand alone (quadruplex RNA F-EBNA1-T): 10.1 ± 0.9 °C
- DC50 (G4-RNA EBNA1): 390 ± 20 nM
- affinity for the G-quadruplex structure of EBNA1 (in words, FID data) (G4-RNA EBNA1): particularly high affinity

SMILES: CC[n+]1cccc2cc(C=NNC(=O)c3cccc(C(=O)NN=Cc4ccc5c(ccc[n+]5CC)c4)n3)ccc21.[I-].[I-] [Compound 3b, N′^2,N′^6-Bis[(1-ethylquinolinium-6-yl)methylene]pyridine-2,6-dicarbohydrazide iodide]
- ΔTm, ligand + 3 μM ds26 (quadruplex RNA F-EBNA1-T): 7.6 ± 0.5 °C
- ΔTm, ligand + 10 μM ds26 (quadruplex RNA F-EBNA1-T): 7.4 ± 0.3 °C
- ΔTm, ligand alone (quadruplex RNA F-EBNA1-T): 5.9 ± 0.1 °C
- DC50 (G4-RNA EBNA1): 740 ± 30 nM

SMILES: O=C(NN=Cc1ccc2c(ccc[n+]2Cc2ccccc2)c1)c1cccc(C(=O)NN=Cc2ccc3c(ccc[n+]3Cc3ccccc3)c2)n1.[Br-].[Br-] [Compound 3c, N′^2,N′^6-Bis[(1-benzylquinolinium-6-yl)methylene]pyridine-2,6-dicarbohydrazide bromide]
- ΔTm, ligand + 3 μM ds26 (quadruplex RNA F-EBNA1-T): 12.2 ± 0.2 °C
- ΔTm, ligand + 10 μM ds26 (quadruplex RNA F-EBNA1-T): 12.0 ± 0.2 °C
- ΔTm, ligand alone (quadruplex RNA F-EBNA1-T): 10.4 ± 0.3 °C
- DC50 (G4-RNA EBNA1): 720 ± 30 nM

SMILES: CC[n+]1cccc2cc(C=NNC(=O)c3ccc4ccc(C(=O)NN=Cc5ccc6c(ccc[n+]6CC)c5)nc4n3)ccc21.[I-].[I-] [Compound 9b, N′^2,N′^7-Bis[(1-ethylquinolinium-6-yl)methylene]-1,8-naphthyridine-2,7-dicarbohydrazide iodide]
- ΔTm, ligand + 3 μM ds26 (quadruplex RNA F-EBNA1-T): 10.3 ± 0.2 °C
- ΔTm, ligand + 10 μM ds26 (quadruplex RNA F-EBNA1-T): 8.8 ± 0.2 °C
- ΔTm, ligand alone (quadruplex RNA F-EBNA1-T): 11.8 ± 0.1 °C
- DC50 (G4-RNA EBNA1): 800 ± 10 nM

SMILES: O=C(NN=Cc1ccc2c(ccc[n+]2Cc2ccccc2)c1)c1ccc2ccc(C(=O)NN=Cc3ccc4c(ccc[n+]4Cc4ccccc4)c3)nc2n1.[Br-].[Br-] [Compound 9c, N′^2,N′^7-Bis[(1-benzylquinolinium-6-yl)methylene]-1,8-naphthyridine-2,7-dicarbohydrazide bromide]
- ΔTm, ligand + 3 μM ds26 (quadruplex RNA F-EBNA1-T): 12.3 ± 0.4 °C
- ΔTm, ligand + 10 μM ds26 (quadruplex RNA F-EBNA1-T): 10.0 ± 1.7 °C
- ΔTm, ligand alone (quadruplex RNA F-EBNA1-T): 13.1 ± 0.6 °C
- DC50 (G4-RNA EBNA1): 1090 ± 100 nM

SMILES: O=C(NN=Cc1cc[n+](Cc2ccccc2)c2ccccc12)c1ccc2ccc3ccc(C(=O)NN=Cc4cc[n+](Cc5ccccc5)c5ccccc45)nc3c2n1.[Br-].[Br-] [Compound 11c, N′^2,N′^9-Bis[(1-benzylquinolinium-4-yl)methylene]-1,10-phenanthroline-2,9-dicarbohydrazide bromide]
- ΔTm, ligand + 3 μM ds26 (quadruplex RNA F-EBNA1-T): 20.3 ± 0.4 °C
- ΔTm, ligand + 10 μM ds26 (quadruplex RNA F-EBNA1-T): 17.0 ± 0.8 °C
- ΔTm, ligand alone (quadruplex RNA F-EBNA1-T): 20.1 ± 0.3 °C
- affinity for the G-quadruplex structure of EBNA1 (in words, FRET-melting data) (quadruplex RNA F-EBNA1-T): particularly high affinity
- DC50 (G4-RNA EBNA1): 340 ± 20 nM
- affinity for the G-quadruplex structure of EBNA1 (in words, FID data) (G4-RNA EBNA1): particularly high affinity

SMILES: CC[n+]1cccc2cc(C=NNC(=O)c3ccc4ccc5ccc(C(=O)NN=Cc6ccc7c(ccc[n+]7CC)c6)nc5c4n3)ccc21.[I-].[I-] [Compound 12b, N′^2,N′^9-Bis[(1-ethylquinolinium-6-yl)methylene]-1,10-phenanthroline-2,9-dicarbohydrazide iodide]
- ΔTm, ligand + 3 μM ds26 (quadruplex RNA F-EBNA1-T): 25.9 ± 0.4 °C
- ΔTm, ligand + 10 μM ds26 (quadruplex RNA F-EBNA1-T): 25.1 ± 0.8 °C
- ΔTm, ligand alone (quadruplex RNA F-EBNA1-T): 28.5 ± 1.1 °C
- affinity for the G-quadruplex structure of EBNA1 (in words, FRET-melting data) (quadruplex RNA F-EBNA1-T): particularly high affinity
- DC50 (G4-RNA EBNA1): 590 ± 30 nM

SMILES: O=C(NN=Cc1ccc2c(ccc[n+]2Cc2ccccc2)c1)c1ccc2ccc3ccc(C(=O)NN=Cc4ccc5c(ccc[n+]5Cc5ccccc5)c4)nc3c2n1.[Br-].[Br-] [Compound 12c, N′^2,N′^9-Bis[(1-benzylquinolinium-6-yl)methylene]-1,10-phenanthroline-2,9-dicarbohydrazide bromide]
- ΔTm, ligand + 3 μM ds26 (quadruplex RNA F-EBNA1-T): 25.0 ± 0.7 °C
- ΔTm, ligand + 10 μM ds26 (quadruplex RNA F-EBNA1-T): 22.7 ± 1.5 °C
- ΔTm, ligand alone (quadruplex RNA F-EBNA1-T): 25.3 ± 1.3 °C
- affinity for the G-quadruplex structure of EBNA1 (in words, FRET-melting data) (quadruplex RNA F-EBNA1-T): particularly high affinity
- DC50 (G4-RNA EBNA1): 650 ± 60 nM
